For this assay, the system named is U87 cells. Put plainly: Cytotoxicity of TMZ micelles (Guava ViaCount cell viability assay).

Description: Three cytotoxicity experiments, using Guava Via-Count Assay and flow cytometry (EMD Millipore, MA, USA), were performed using increasing concentrations of free TMZ, MTMZ and PMTMZ over increasing time. Cells (30,000 cells per well) were plated in 24-well plates and incubated overnight at 37° C. with 5% CO2. A TMZ solution (1 mg ml^−1) in DMSO was prepared and stored at 4° C. The stock solution was diluted with alpha-MEM and used to prepare free TMZ at increasing concentrations of 0-100 04. Independently, both 1 μM and 10 04 samples of PMTMZ and MTMZ were prepared with alpha-MEM. The triplicate wells were treated with concentrations at a constant volume of 200 μl per well. After 24 h, cell viability was performed using Guava ViaCount Assay and flow cytometry (EMD Millipore). The remaining wells were retreated with the appropriate concentrations over a 10 day period. Viability data was collected and analyzed.

Regarding `Cn1nnc2c(C(N)=O)ncn2c1=O` [free TMZ, temozolomide], the “Cells killed (cell death)” value (U87, 1 μM, between 1 and 5 days) is listed as “approximately 4%”. Moreover, the Cell death (U87, 10 or 100 μM, between 24 and 72 h) is about 2%.

Values taken from patent publication US20200016277A1, “NANOPARTICLES FOR ACTIVE AGENT DELIVERY TO BRAIN CANCERS” (MUSC FOUNDATION FOR RESEARCH DEVELOPMENT, priority 2017, published 2020).
